How the values were obtained:
Format in all cases: in vivo
[1] = system: lambsquarters (Chenopodium album, CHEAL); assay: Pre-emerge greenhouse herbicide activity screening, phytotoxicity rating; conditions: 14 days after application
Procedure, shortened: (§1)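 Rates of 15 to 1000 g ai/ha were applied by mechanized flat-fan spray. Phytotoxicity was then judged visually at 14 days using a 0-100 scale.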

[2] = system: redroot pigweed (Amaranthus retroflexus, AMARE); assay: as above; conditions: 14 days after application
Procedure, shortened: as §1

[3] = system: sicklepod (Cassia obtusifolia, CASOB); assay: as above; conditions: 14 days after application
Procedure, shortened: as §1

[4] = system: barnyardgrass (Echinochloa crus-galli, ECHCG); assay: as above; conditions: 14 days after application
Procedure, shortened: as §1

[5] = system: common ragweed (Ambrosia artemisiifolia L., AMBEL); assay: as above; conditions: 14 days after application
Procedure, shortened: as §1

[6] = system: johnsongrass (Sorghum halepense, SORHA); assay: as above; conditions: 14 days after application
Procedure, shortened: as §1

[7] = system: green foxtail (Setaria viridis, SETVI); assay: as above; conditions: 14 days after application
Procedure, shortened: as §1

[8] = system: velvetleaf (Abutilon theophrasti, ABUTH); assay: as above; conditions: 14 days after application
Procedure, shortened: as §1

[9] = system: ivyleaf morningglory (Ipomoea hederacea, IPOHE); assay: as above; conditions: 14 days after application
Procedure, shortened: as §1

[10] = system: large crabgrass (Digitaria sanguinalis, DIGSA); assay: as above; conditions: 14 days after application
Procedure, shortened: as §1

[11] = system: field corn (Zea mays L., var. Dekalb 535, CORN); assay: Pre-emerge greenhouse screening, crop safety (phytotoxicity rating); conditions: 14 days after application
Procedure, shortened: as §1

[12] = system: soybean (Glycine max L., var. Pella 86, SOY); assay: as above; conditions: 14 days after application
Procedure, shortened: as §1

[13] = system: upland rice (Oryza sp., var.Tebonnet, RICE); assay: as above; conditions: 14 days after application
Procedure, shortened: as §1

[14] = system: field corn (Zea mays L., var. Dekalb 535, CORN); assay: Post-emerge greenhouse screening, crop safety / corn selectivity (phytotoxicity rating); conditions: 14 days after application
Procedure, shortened: as §1

[15] = system: lambsquarters (Chenopodium album, CHEAL); assay: Post-emerge greenhouse herbicide activity screening, phytotoxicity rating
Procedure, shortened: as §1

[16] = system: redroot pigweed (Amaranthus retroflexus, AMARE); assay: as above
Procedure, shortened: as §1

[17] = system: sicklepod (Cassia obtusifolia, CASOB); assay: as above
Procedure, shortened: as §1

[18] = system: barnyardgrass (Echinochloa crus-galli, ECHCG); assay: as above; conditions: 14 days after application
Procedure, shortened: as §1

[19] = system: common ragweed (Ambrosia artemisiifolia L., AMBEL); assay: as above
Procedure, shortened: as §1

[20] = system: johnsongrass (Sorghum halepense, SORHA); assay: as above; conditions: 14 days after application
Procedure, shortened: as §1

[21] = system: green foxtail (Setaria viridis, SETVI); assay: as above
Procedure, shortened: as §1

[22] = system: velvetleaf (Abutilon theophrasti, ABUTH); assay: as above; conditions: 14 days after application
Procedure, shortened: as §1

[23] = system: ivyleaf morningglory (Ipomoea hederacea, IPOHE); assay: as above; conditions: 14 days after application
Procedure, shortened: as §1

[24] = system: large crabgrass (Digitaria sanguinalis, DIGSA); assay: as above; conditions: 14 days after application
Procedure, shortened: as §1

[25] = system: soybean (Glycine max L., var. Pella 86, SOY); assay: Post-emerge greenhouse screening, crop safety (phytotoxicity rating); conditions: 14 days after application
Procedure, shortened: as §1

[26] = system: upland rice (Oryza sp., var.Tebonnet, RICE); assay: as above; conditions: 14 days after application
Procedure, shortened: as §1

[27] = 125 g ai/ha, 14 days after application
[28] = 250 g ai/ha, 14 days after application

## Cn1c(C(F)(F)F)cc(=O)n(-c2cc(Oc3ccccc3)c(C#N)cc2F)c1=S [Compound 1-69]
[1]; 125 g ai/ha
  CHEAL phytotoxicity rating (0-100 scale): 100
[1]; 250 g ai/ha
  CHEAL phytotoxicity rating (0-100 scale): 100
[2]; 125 g ai/ha
  AMARE phytotoxicity rating (0-100 scale): 100
[2]; 250 g ai/ha
  AMARE phytotoxicity rating (0-100 scale): 100
[3]; 125 g ai/ha
  CASOB phytotoxicity rating (0-100 scale): 100
[3]; 250 g ai/ha
  CASOB phytotoxicity rating (0-100 scale): 99
[4]; 125 g ai/ha
  ECHCG phytotoxicity rating (0-100 scale): 90
[4]; 250 g ai/ha
  ECHCG phytotoxicity rating (0-100 scale): 95
[5]; 125 g ai/ha
  AMBEL phytotoxicity rating (0-100 scale): 100
[5]; 250 g ai/ha
  AMBEL phytotoxicity rating (0-100 scale): 100
[6]; 125 g ai/ha
  SORHA phytotoxicity rating (0-100 scale): 95
[6]; 250 g ai/ha
  SORHA phytotoxicity rating (0-100 scale): 95
[7]; 125 g ai/ha
  SETVI phytotoxicity rating (0-100 scale): 100
[7]; 250 g ai/ha
  SETVI phytotoxicity rating (0-100 scale): 100
[8]; 125 g ai/ha
  ABUTH phytotoxicity rating (0-100 scale): 100
[8]; 250 g ai/ha
  ABUTH phytotoxicity rating (0-100 scale): 100
[9]; 125 g ai/ha
  IPOHE phytotoxicity rating (0-100 scale): 100
[9]; 250 g ai/ha
  IPOHE phytotoxicity rating (0-100 scale): 100
[10]; 125 g ai/ha
  DIGSA phytotoxicity rating (0-100 scale): 99
[10]; 250 g ai/ha
  DIGSA phytotoxicity rating (0-100 scale): 100
[11]; 125 g ai/ha
  CORN crop damage, phytotoxicity rating (0-100 scale): 5
[11]; 250 g ai/ha
  CORN crop damage, phytotoxicity rating (0-100 scale): 10
[12]; 125 g ai/ha
  SOY crop damage, phytotoxicity rating (0-100 scale): 30
[12]; 250 g ai/ha
  SOY crop damage, phytotoxicity rating (0-100 scale): 50
[13]; 125 g ai/ha
  RICE crop damage, phytotoxicity rating (0-100 scale): 50
[13]; 250 g ai/ha
  RICE crop damage, phytotoxicity rating (0-100 scale): 60
[14]; 125 g ai/ha
  CORN crop damage, phytotoxicity rating (0-100 scale): 0
[14]; 250 g ai/ha
  CORN crop damage, phytotoxicity rating (0-100 scale): 5
[15]; 31.3 g ai/ha
  CHEAL phytotoxicity rating (0-100 scale): 80
[15]; 62.5 g ai/ha
  CHEAL phytotoxicity rating (0-100 scale): 80
[15]; [27]
  CHEAL phytotoxicity rating (0-100 scale): 100
[15]; [28]
  CHEAL phytotoxicity rating (0-100 scale): 100
[16]; 31.3 g ai/ha
  AMARE phytotoxicity rating (0-100 scale): 100
[16]; 62.5 g ai/ha
  AMARE phytotoxicity rating (0-100 scale): 100
[16]; [27]
  AMARE phytotoxicity rating (0-100 scale): 99
[16]; [28]
  AMARE phytotoxicity rating (0-100 scale): 100
[17]; 31.3 g ai/ha
  CASOB phytotoxicity rating (0-100 scale): 50
[17]; 62.5 g ai/ha
  CASOB phytotoxicity rating (0-100 scale): 65
[17]; [27]
  CASOB phytotoxicity rating (0-100 scale): 75
[17]; [28]
  CASOB phytotoxicity rating (0-100 scale): 70
[18]; 125 g ai/ha
  ECHCG phytotoxicity rating (0-100 scale): 0
[18]; 250 g ai/ha
  ECHCG phytotoxicity rating (0-100 scale): 25
[19]; 31.3 g ai/ha
  AMBEL phytotoxicity rating (0-100 scale): 70
[19]; 62.5 g ai/ha
  AMBEL phytotoxicity rating (0-100 scale): 70
[19]; [27]
  AMBEL phytotoxicity rating (0-100 scale): 30
[19]; [28]
  AMBEL phytotoxicity rating (0-100 scale): 35
[20]; 125 g ai/ha
  SORHA phytotoxicity rating (0-100 scale): 0
[20]; 250 g ai/ha
  SORHA phytotoxicity rating (0-100 scale): 0
[21]; 31.3 g ai/ha
  SETVI phytotoxicity rating (0-100 scale): 0
[21]; 62.5 g ai/ha
  SETVI phytotoxicity rating (0-100 scale): 50
[21]; [27]
  SETVI phytotoxicity rating (0-100 scale): 0
[21]; [28]
  SETVI phytotoxicity rating (0-100 scale): 30
[22]; 125 g ai/ha
  ABUTH phytotoxicity rating (0-100 scale): 100
[22]; 250 g ai/ha
  ABUTH phytotoxicity rating (0-100 scale): 100
[23]; 125 g ai/ha
  IPOHE phytotoxicity rating (0-100 scale): 100
[23]; 250 g ai/ha
  IPOHE phytotoxicity rating (0-100 scale): 100
[24]; 125 g ai/ha
  DIGSA phytotoxicity rating (0-100 scale): 0
[24]; 250 g ai/ha
  DIGSA phytotoxicity rating (0-100 scale): 30
[25]; 125 g ai/ha
  SOY crop damage, phytotoxicity rating (0-100 scale): 0
[25]; 250 g ai/ha
  SOY crop damage, phytotoxicity rating (0-100 scale): 50
[26]; 125 g ai/ha
  RICE crop damage, phytotoxicity rating (0-100 scale): 0
[26]; 250 g ai/ha
  RICE crop damage, phytotoxicity rating (0-100 scale): 0

— patent US6613718B2, “Aryl ether derivatives and processes for their preparation and herbicidal and desiccant compositions containing them” (Ishihara Sangyo Kaisha, Ltd., priority 2001, dated 2003)
